Assay results from patent US20240043943A1, “METHODS AND COMPOSITIONS FOR PROTEASE REPORTER ASSAYS AND MODULATORS” (712 NORTH, INC., priority 2021, published 2024).
Entries after “also recorded” stand apart in the source; their conditions may differ. Counter-ions that a name gives are not always drawn. Like-named read-outs stand apart in the source and are kept apart here. Starred links: 1 amine or outer side, 2 acyl side, 3 side chain; linkers in the order of their positions; H or OH if unused. Positions of bridges follow the written chain, without caps; N, C: chain ends. Non-standard residues stand in square brackets, D forms with d. Residues, ends and D or L forms follow the SMILES beside them. Chains are numbered I, II in the order given. Actinocin(9to1) = Cc1c2oc3c(C)ccc(C(=O)[*:1])c3nc-2c(C(=O)[*:2])c(N)c1=O; NMeV = CN[C@H](C(=O)O)C(C)C; Sar = CNCC(=O)O

How the values were obtained:
OMA1 protease [1] = target: T1, OMA1 protease (Homo sapiens, UniProt Q96E52); assay: Rep#15 / Luke-S1 OMA1 reporter bioluminescence assay in Hek293T cells; format: cell-based; parameters: The OMA1 enzyme is dormant under physiological cell culture conditions in these cells; endogenous in cells; host or cells: Hek293T cells, transiently or stably (Luke-S1 line, ATCC PTA-127022) expressing reporter #15; details: for OMA1 modulating properties: drugs identified with the OMA1 assays (FIG. 17, FIG. 10)
T1 sequence (Q96E52 144-524): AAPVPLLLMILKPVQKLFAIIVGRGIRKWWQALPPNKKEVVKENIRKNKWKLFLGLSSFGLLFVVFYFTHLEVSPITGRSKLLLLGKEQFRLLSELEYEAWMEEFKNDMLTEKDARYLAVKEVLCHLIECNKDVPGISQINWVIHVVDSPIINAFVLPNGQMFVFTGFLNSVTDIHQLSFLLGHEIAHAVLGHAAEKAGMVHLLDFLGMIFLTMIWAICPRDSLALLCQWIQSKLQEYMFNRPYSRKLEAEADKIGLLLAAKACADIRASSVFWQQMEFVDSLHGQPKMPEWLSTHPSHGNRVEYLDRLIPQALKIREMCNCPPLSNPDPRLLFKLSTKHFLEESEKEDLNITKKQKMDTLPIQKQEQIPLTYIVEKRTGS
Excerpt: Example 1 provides a nonlimiting example of generation and use of a reporter of present invention and illustrates its function. To this end, generation and use of reporter gene #01 (SEQ ID NO: 01) and reporter gene #15 (SEQ ID NO: 15) are described and their function compared to each other. The general design of a reporter of present invention is illustrated in FIG. 1A and its working principle in FIG. 1B. A reporter in general, and reporter gene #01 and reporter gene #15 in particular, can be generated as follows. DNA sequences of a reporter may be codon-optimized in silico or by any other way for expression in a suitable host. DNA sequences of reporter genes #01 and #15 were codon-optimized for expression in humans (SEQ ID NO: 02 and SEQ ID NO: 16, respectively). The (optimized) sequences were synthesized and cloned into a pcDNA3.1 expression vector under the control of a CMV promotor (see FIG. 1 for an illustration of such vector). Of course, an expression system and a host should match for best results. The host in this example were Hek293T cells, which were maintained under standard culture conditions in DMEM with 10% Fetal Bovine Serum and 1% Pen/Strep. For an experiment, Hek293T cells were seeded in opaque white tissue-culture treated 96-well plates at 80% confluency and transfected with vectors carrying reporter gene #01 and reporter gene #15 and 24 hours later incubated for 30 minutes at 37° C. in OptiMEM or in OptiMEM with 10 μM CCCP. After 30 minutes, the OptiMEM cell-culture media was replaced with luciferase substrate (furimazine, Promega) diluted 1:100 in OptiMEM, and bioluminescence was measured with a Fluoroskan Ascent FL (Thermo Scientific) using a 517 nm single-pass filter and 200 milliseconds integration time. […] Reporter #01 comprises a large part of OPA1's amino-terminus as mitochondrial targeting sequence, which is cleaved by the mitochondrial processing peptidase upon mitochondrial import (see Example 2). Reporter #15 was initially envisioned as a control for reporter #01. Reporter #15 therefore lacks the first 66 amino acids of reporter #01 believed to be essential for mitochondrial import.
Example 5 illustrates how mitochondrial toxicity can be measured with reporter and assays of present invention. The OMA1-OPA1 pathway basically serves as a “canary-in-the-coalmine” for a mitochondrial deterioration. […] Hek293T cells expressing reporter #01 and #15 were exposed to CCCP, tipranavir and sorafenib (in OptiMEM) for 30 minutes before the medium was replaced with furimazine (1:100), and bioluminescence measured.
The following non-limiting examples illustrate in more details the in vivo assessment of OMA1 protease activity utilizing an artificial luciferase reporter of present invention stably expressed in Hek293T cells.

OPA1 = details: literature; cited from earlier work
mitochondria = details: FDA labels, cited from earlier work
OMA1 protease [2] = target: T1, OMA1 protease; assay: Rep#01 OMA1 reporter bioluminescence assay in Hek293T cells; format: cell-based; parameters: The OMA1 enzyme is dormant under physiological cell culture conditions in these cells; endogenous in cells; host or cells: Hek293T cells, transiently or stably (Luke-S1 line, ATCC PTA-127022) expressing reporter #15; details: 30 minutes exposure, CCCP 10 μM
Excerpt: Example 1 provides a nonlimiting example of generation and use of a reporter of present invention and illustrates its function. To this end, generation and use of reporter gene #01 (SEQ ID NO: 01) and reporter gene #15 (SEQ ID NO: 15) are described and their function compared to each other. The general design of a reporter of present invention is illustrated in FIG. 1A and its working principle in FIG. 1B. A reporter in general, and reporter gene #01 and reporter gene #15 in particular, can be generated as follows. DNA sequences of a reporter may be codon-optimized in silico or by any other way for expression in a suitable host. DNA sequences of reporter genes #01 and #15 were codon-optimized for expression in humans (SEQ ID NO: 02 and SEQ ID NO: 16, respectively). The (optimized) sequences were synthesized and cloned into a pcDNA3.1 expression vector under the control of a CMV promotor (see FIG. 1 for an illustration of such vector). Of course, an expression system and a host should match for best results. The host in this example were Hek293T cells, which were maintained under standard culture conditions in DMEM with 10% Fetal Bovine Serum and 1% Pen/Strep. For an experiment, Hek293T cells were seeded in opaque white tissue-culture treated 96-well plates at 80% confluency and transfected with vectors carrying reporter gene #01 and reporter gene #15 and 24 hours later incubated for 30 minutes at 37° C. in OptiMEM or in OptiMEM with 10 μM CCCP. After 30 minutes, the OptiMEM cell-culture media was replaced with luciferase substrate (furimazine, Promega) diluted 1:100 in OptiMEM, and bioluminescence was measured with a Fluoroskan Ascent FL (Thermo Scientific) using a 517 nm single-pass filter and 200 milliseconds integration time. […]
Example 5 illustrates how mitochondrial toxicity can be measured with reporter and assays of present invention. […] Hek293T cells expressing reporter #01 and #15 were exposed to CCCP, tipranavir and sorafenib (in OptiMEM) for 30 minutes before the medium was replaced with furimazine (1:100), and bioluminescence measured.

OMA1 protease [3] = target: T1, OMA1 protease; details: literature; cited from earlier work
OMA1 protease [4] = target: T1, OMA1 protease; assay: Rep#15 assay with phenanthroline preincubation before CCCP (OMA1 inhibitor control); format: cell-based; parameters: The OMA1 enzyme is dormant under physiological cell culture conditions in these cells; endogenous in cells; host or cells: Hek293T cells, transiently or stably (Luke-S1 line, ATCC PTA-127022) expressing reporter #15; details: 500 μM phenanthroline 1 hour, then 10 μM CCCP 30 minutes
Experimental: Example 2 refers to FIG. 4 and illustrates hydrolysis of reporter #01 and reporter #15. For this example, transfected cells were selected by puromycin. Reporter cells were exposed for 30 minutes to 10 μM CCCP before being harvested in RIPA buffer and subjected to 12% SDS-PAGE followed by Western-blotting. […] Full-length reporter #01 has a predicted size of 39.6 kDa but was not detected in Western blots. […] At the same time, reporter #15 is not processed upon import, but migrated at its expected size of 31.9 kDa. (Example 7 establishes mitochondrial import by showing co-migration of reporter #15 with OPA1 and OMA1 in mitochondria-enriched fractions.) Reporter #15 appears to be more abundant and stable, which may explain its better performance. […] This provides additional evidence that reporter #15 is indeed localized in mitochondria where it is recognized and hydrolyzed by OMA1. […] Therefore, phenanthroline was used as a positive control in the reporter assay. If reporter #15 indeed is cleaved by OMA1, then phenanthroline should prevent this at least to a certain extend by inhibiting OMA1 and accordingly preserving the signal. Hek293T cells were transfected with reporter gene #15 as described in the preceding example. […] After 30 minutes, the medium was replaced with furimazine (1:100 in OptiMEM), and bioluminescence measured as described in Example 1.

Row | Molecule | OMA1 modulating properties (OMA1 protease [1]) | further results
1 | C=CC(=O)Nc1cc(Nc2nccc(-c3cn(C)c4ccccc34)n2)c(OC)cc1N(C)CCN(C)C [Osimertinib] | OMA1 modulating properties | –
2 | O=C(c1ccc(OCCN2CCCCC2)cc1)c1c(-c2ccc(O)cc2)sc2cc(O)ccc12 [Raloxifene] | OMA1 modulating properties | –
3 | CN(C)C(=O)c1cc2cnc(Nc3ccc(N4CCNCC4)cn3)nc2n1C1CCCC1 [Ribociclib] | OMA1 modulating properties | –
4 | CC/C(=C(\c1ccccc1)c1ccc(OCCN(C)C)cc1)c1ccccc1 [Tamoxifen citrate] | OMA1 modulating properties | –
5 | Cc1cc(Nc2ncnc3ccc(NC4=NC(C)(C)CO4)cc23)ccc1Oc1ccn2ncnc2c1 [Tucatinib] | OMA1 modulating properties | –
6 | CC(=O)[C@]1(O)Cc2c(O)c3c(c(O)c2[C@@H](O[C@H]2C[C@H](N)[C@H](O)[C@H](C)O2)C1)C(=O)c1ccccc1C3=O [Idarubicin hydrochloride] | OMA1 modulating properties | –
7 | CN1CCN(c2ccc(C(=O)Nc3n[nH]c4ccc(Cc5cc(F)cc(F)c5)cc34)c(NC3CCOCC3)c2)CC1 [Entrectinib] | OMA1 modulating properties | –
8 | Dabrafenib mesylate | OMA1 modulating properties | –
9 | FC(F)(F)c1ccc(CNc2ccc(Cc3c[nH]c4ncc(Cl)cc34)cn2)cn1 [Pexidartinib] | OMA1 modulating properties | –
10 | CC(C)(O)CNc1nc(Nc2ccnc(C(F)(F)F)c2)nc(-c2cccc(C(F)(F)F)n2)n1 [Enasidenib] | OMA1 modulating properties | –
11 | CNC(=O)c1cc(Oc2ccc(NC(=O)Nc3ccc(Cl)c(C(F)(F)F)c3)c(F)c2)ccn1 [Regorafenib] | OMA1 modulating properties | –
12 | Cc1c2oc3c(C)ccc(C(=O)N[C@@H]4C(=O)N[C@H](C(C)C)C(=O)N5CCC[C@H]5C(=O)N(C)CC(=O)N(C)[C@@H](C(C)C)C(=O)O[C@@H]4C)c3nc-2c(C(=O)N[C@@H]2C(=O)N[C@H](C(C)C)C(=O)N3CCC[C@H]3C(=O)N(C)CC(=O)N(C)[C@@H](C(C)C)C(=O)O[C@@H]2C)c(N)c1=O [Dactinomycin] (I: T[dV]P[Sar][NMeV] / II: T[dV]P[Sar][NMeV]; ester I:1-I:C, II:1-II:C; linker I:N-II:N via Actinocin(9to1)) | OMA1 modulating properties | –
13 | CCCCC(=O)OCC(=O)[C@]1(O)Cc2c(O)c3c(c(O)c2[C@@H](O[C@H]2C[C@H](NC(=O)C(F)(F)F)[C@H](O)[C@H](C)O2)C1)C(=O)c1c(OC)cccc1C3=O [Valrubicin] | OMA1 modulating properties | –
14 | COc1cccc2c1C(=O)c1c(O)c3c(c(O)c1C2=O)C[C@@](O)(C(=O)CO)C[C@@H]3O[C@H]1C[C@H](N)[C@H](O)[C@H](C)O1 [Doxorubicin hydrochloride] | OMA1 modulating properties | –
15 | Clc1ccc(C(c2ccccc2Cl)C(Cl)Cl)cc1 (stereo not drawn) [Mitotane] | OMA1 modulating properties | –
16 | Cc1ccc(NC(=O)c2ccc(CN3CCN(C)CC3)cc2)cc1Nc1nccc(-c2cccnc2)n1 [Imatinib] | OMA1 modulating properties | –
17 | CNC(=O)c1cc(Oc2ccc(NC(=O)Nc3ccc(Cl)c(C(F)(F)F)c3)cc2)ccn1 [sorafenib, Sorafenib] | OMA1 modulating properties | OPA1 cleavage (OPA1): can promote OPA1 cleavage; mitochondrial toxicity (mitochondria): exhibit mitochondrial toxicity; bioluminescence signal of reporter #15 (OMA1 protease [1]; Hek293T, 30 minutes exposure, CCCP 10 μM): significantly reduced signal; also recorded: significantly reduced bioluminescence; bioluminescence signal of reporter #01 (OMA1 protease [2]): significantly reduced bioluminescence; bioluminescence signal of reporter #01 (OMA1 protease [2]; listed as Sorafenib): comparable effects
18 | Cc1cc(Nc2ncc(Cl)c(Nc3ccccc3S(=O)(=O)C(C)C)n2)c(OC(C)C)cc1C1CCNCC1 [Ceritinib] | OMA1 modulating properties | –
19 | N.N.[Cl][Pt][Cl] [cisplatin] | – | OPA1 cleavage (OPA1): can promote OPA1 cleavage
20 | COc1cccc2c1C(=O)c1c(O)c3c(c(O)c1C2=O)C[C@@](O)(C(C)=O)C[C@@H]3O[C@H]1C[C@H](N)[C@H](O)[C@H](C)O1 [Daunorubicin hydrochloride] | OMA1 modulating properties | –
21 | O=C(/C=C\n1cnc(-c2cc(C(F)(F)F)cc(C(F)(F)F)c2)n1)NNc1cnccn1 [Selinexor] | OMA1 modulating properties | –
22 | c1cnc2c(c1)ccc1cccnc12 [phenanthroline] | – | effect on OMA1 protease (OMA1 protease [3]): can inhibit OMA1 protease in vitro; bioluminescence signal of reporter #15 after CCCP with inhibitor pretreatment (OMA1 protease [4]): prevented reporter #15 deactivation; also recorded: largely preserved
23 | CCC[C@@]1(CCc2ccccc2)CC(O)=C([C@H](CC)c2cccc(NS(=O)(=O)c3ccc(C(F)(F)F)cn3)c2)C(=O)O1 [tipranavir] | – | mitochondrial toxicity (mitochondria): exhibit mitochondrial toxicity; mitochondrial toxicity (mitochondria; listed as Tipranavir): cause mitochondrial toxicity
